# Laboratory results from patent US20110306622A1, “METHODS OF TREATING HEMATOLOGICAL DISORDERS WITH QUINAZOLINONE COMPOUNDS IN SELECTED SUBJECTS” (Calitoga Pharmaceuticals, Inc., priority 2010, published 2011).
# Legend:
# [1] = system: CCL3, CCL4 and CXCL13 chemokine levels in CLL patients; experiment: Plasma chemokine levels in CLL patients before and after one 28-day cycle of treatment (multiplexed bead suspension arrays); assay type: in vivo, human
# Experimental: Plasma was stored at −70 degrees centigrade. Before analysis, samples were thawed overnight at 4 degrees centigrade and centrifuged at 1,500×g to remove debris. Chemokines were analyzed with commercially available multiplexed bead suspension arrays (MBA, Millipore). MBAs were analyzed using a Luminex 200 instrument and data was organized and analyzed using 3.1 xPONENT software. The plasma concentration of 14 patients with CLL was assessed at pre-dose baseline concentrations. The average plasma concentration of CCL3 (186 pg/mL) and CCL4 (303 pg/mL) at the pre-dose baseline are approximately 5 times higher in these subject compared to normal subjects. The average plasma concentration of CXCL13 (316 pg/mL) at pre-dose baseline was approximately 10 times higher than normal subjects. […] In the first week of dosing across all dose levels evaluated, the concentration of CCL3, CCL4 and CXCL13 were decreased by 2 to 5-fold. On the last day of the cycle, the plasma concentration of the chemokines was reassessed, see FIG. 1.
# [2] = system: BCR-induced secretion of CCL3 and CCL4 by CLL cells; experiment: BCR-induced (anti-IgM) secretion of chemokines CCL3 and CCL4 by CLL cells, ELISA of supernatants; assay type: cell-based; conditions: medium with anti-IgM plus compound, 24 hours, anti-IgM alone raised levels roughly 5 to 6 fold
# PI3Kalpha = PI3Kalpha (Mus musculus, UniProt P42337); experiment: Isoform specific cell-based assay: PDGF induced pAKT in fibroblast cell line (Swiss-3T3); conditions: n = 12
# Sequence of PI3Kalpha (P42337 whole entry, canonical isoform): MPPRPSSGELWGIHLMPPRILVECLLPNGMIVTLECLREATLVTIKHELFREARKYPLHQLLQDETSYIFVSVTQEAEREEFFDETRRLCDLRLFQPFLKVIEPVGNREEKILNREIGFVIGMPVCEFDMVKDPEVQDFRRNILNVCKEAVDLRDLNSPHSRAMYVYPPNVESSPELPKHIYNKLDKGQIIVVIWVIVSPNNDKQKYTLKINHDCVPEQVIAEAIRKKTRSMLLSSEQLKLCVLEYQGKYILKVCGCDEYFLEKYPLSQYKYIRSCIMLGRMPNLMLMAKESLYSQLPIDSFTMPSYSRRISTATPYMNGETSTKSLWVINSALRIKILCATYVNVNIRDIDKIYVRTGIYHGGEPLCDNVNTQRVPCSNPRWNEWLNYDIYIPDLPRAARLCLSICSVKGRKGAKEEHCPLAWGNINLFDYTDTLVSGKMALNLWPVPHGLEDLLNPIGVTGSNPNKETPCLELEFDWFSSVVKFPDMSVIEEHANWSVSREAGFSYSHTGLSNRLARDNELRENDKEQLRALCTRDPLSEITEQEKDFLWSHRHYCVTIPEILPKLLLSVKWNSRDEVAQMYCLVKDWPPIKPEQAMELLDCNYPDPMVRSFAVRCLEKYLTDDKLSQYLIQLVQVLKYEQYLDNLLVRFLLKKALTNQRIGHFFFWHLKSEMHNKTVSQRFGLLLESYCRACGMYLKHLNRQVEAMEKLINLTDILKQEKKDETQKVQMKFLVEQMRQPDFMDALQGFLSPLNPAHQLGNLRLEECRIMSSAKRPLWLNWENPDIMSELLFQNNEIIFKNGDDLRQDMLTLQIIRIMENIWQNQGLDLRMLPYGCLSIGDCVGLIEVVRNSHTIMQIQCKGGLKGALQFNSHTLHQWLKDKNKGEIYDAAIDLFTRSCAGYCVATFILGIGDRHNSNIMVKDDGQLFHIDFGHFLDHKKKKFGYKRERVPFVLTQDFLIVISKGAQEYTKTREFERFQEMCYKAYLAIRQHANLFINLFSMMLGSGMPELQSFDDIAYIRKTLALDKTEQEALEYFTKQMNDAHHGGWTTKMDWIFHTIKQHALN
# Sequence of PI3Kalpha (P26450 whole entry partner, canonical isoform): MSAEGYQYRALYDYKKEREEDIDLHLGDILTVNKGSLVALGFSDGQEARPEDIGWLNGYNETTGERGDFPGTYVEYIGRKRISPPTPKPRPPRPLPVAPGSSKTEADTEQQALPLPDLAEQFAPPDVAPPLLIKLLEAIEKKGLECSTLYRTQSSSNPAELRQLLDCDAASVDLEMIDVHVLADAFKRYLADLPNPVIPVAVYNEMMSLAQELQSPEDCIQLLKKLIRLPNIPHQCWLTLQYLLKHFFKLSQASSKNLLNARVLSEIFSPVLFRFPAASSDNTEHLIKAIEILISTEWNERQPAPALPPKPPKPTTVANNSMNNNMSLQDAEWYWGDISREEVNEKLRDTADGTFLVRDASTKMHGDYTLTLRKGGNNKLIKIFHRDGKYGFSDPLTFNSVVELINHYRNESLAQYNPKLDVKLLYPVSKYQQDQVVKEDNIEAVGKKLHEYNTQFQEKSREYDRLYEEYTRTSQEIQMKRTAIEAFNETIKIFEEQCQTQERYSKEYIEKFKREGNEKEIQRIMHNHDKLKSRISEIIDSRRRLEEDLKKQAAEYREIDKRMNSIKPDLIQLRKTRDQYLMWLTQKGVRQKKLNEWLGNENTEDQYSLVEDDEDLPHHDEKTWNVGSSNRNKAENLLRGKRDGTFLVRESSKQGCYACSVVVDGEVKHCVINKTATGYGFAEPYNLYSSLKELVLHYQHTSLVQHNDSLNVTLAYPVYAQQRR
# Experimental: (§1) Swiss-3T3 fibroblasts and RAW-264 were seeded on a 96-well tissue culture plate and allowed to reach at least 90% confluency. […] Akt phosphorylation and total AKT was detected by ELISA. Purified B-cells were treated with either vehicle or serial dilutions of compound I for 30 minutes at room temperature before the addition of purified goat anti-human IgM. Results are expressed as relative [^3H] thymidine incorporation induced by IgM crosslinking.
# PI3Kγ = target: T1, PI3Kγ (Mus musculus, UniProt Q9JHG7); experiment: Isoform specific cell-based assay: C5a induced pAKT in monocyte cell line (RAW-264); conditions: n = 11
# T1 construct: endogenous in cells; host or cells: RAW-264 monocyte cell line
# T1 sequence (Q9JHG7 whole entry, canonical isoform): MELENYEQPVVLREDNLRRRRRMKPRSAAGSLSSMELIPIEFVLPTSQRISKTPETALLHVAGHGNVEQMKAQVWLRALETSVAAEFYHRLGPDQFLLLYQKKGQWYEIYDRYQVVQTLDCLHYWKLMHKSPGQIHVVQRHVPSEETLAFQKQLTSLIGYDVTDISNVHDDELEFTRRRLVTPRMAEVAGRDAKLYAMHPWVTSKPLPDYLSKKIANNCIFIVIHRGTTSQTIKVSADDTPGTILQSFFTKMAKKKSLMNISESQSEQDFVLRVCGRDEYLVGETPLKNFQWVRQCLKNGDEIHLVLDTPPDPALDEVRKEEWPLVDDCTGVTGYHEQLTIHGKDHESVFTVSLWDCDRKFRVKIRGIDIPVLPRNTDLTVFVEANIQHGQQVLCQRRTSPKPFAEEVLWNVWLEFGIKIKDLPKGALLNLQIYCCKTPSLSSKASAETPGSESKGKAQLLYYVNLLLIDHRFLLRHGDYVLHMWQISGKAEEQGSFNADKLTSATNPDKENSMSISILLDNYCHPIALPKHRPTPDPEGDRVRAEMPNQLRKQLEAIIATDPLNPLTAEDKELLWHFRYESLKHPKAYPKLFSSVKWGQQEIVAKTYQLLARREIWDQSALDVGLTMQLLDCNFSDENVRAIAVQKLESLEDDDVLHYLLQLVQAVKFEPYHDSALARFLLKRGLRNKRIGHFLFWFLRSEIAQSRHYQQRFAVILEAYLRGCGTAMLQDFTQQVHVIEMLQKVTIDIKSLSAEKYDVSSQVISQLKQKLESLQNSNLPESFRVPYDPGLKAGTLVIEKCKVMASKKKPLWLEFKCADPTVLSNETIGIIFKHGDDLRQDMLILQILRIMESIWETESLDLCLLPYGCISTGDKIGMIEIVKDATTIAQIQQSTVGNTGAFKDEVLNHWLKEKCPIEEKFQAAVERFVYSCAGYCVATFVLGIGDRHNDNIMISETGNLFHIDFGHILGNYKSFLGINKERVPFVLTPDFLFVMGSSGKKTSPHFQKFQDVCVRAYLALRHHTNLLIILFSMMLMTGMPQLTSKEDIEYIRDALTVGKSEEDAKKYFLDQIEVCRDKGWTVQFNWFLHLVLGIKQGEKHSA
# T1 sequence (Q5SW28 whole entry partner, canonical isoform): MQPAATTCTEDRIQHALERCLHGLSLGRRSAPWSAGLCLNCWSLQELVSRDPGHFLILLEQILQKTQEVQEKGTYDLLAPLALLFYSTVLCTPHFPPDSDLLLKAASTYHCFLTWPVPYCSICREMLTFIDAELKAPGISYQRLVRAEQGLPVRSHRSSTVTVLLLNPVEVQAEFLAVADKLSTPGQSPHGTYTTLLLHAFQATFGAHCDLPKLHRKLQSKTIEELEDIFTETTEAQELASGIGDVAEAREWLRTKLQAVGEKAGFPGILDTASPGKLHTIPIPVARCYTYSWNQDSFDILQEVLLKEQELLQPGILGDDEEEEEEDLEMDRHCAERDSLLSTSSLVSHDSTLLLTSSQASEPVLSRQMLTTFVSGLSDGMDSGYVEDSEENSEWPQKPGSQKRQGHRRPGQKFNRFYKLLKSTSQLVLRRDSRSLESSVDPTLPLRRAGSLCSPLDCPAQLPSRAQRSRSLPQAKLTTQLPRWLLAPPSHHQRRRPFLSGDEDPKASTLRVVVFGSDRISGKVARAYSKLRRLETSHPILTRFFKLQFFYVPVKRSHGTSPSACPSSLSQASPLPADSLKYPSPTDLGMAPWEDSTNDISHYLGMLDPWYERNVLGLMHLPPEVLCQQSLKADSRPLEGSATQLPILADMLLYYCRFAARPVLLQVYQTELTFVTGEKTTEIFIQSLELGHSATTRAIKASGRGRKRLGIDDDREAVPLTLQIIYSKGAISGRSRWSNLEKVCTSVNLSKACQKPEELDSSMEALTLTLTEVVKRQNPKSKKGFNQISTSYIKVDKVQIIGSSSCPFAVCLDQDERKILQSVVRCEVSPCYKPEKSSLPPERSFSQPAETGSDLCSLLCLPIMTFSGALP
# Experimental: as §1
# [3] = system: CCL17, CCL22, CXCL13 and TNF-alpha levels in MCL patients; experiment: Plasma chemokine and TNF-alpha levels and tumor size in MCL patients, pre-treatment vs Day 28; assay type: in vivo, human
# Experimental: (§2) 103 patients were enrolled in the study, including 40 with MCL and 63 with iNHL. Among patients with iNHL, all 4 subtypes were represented. Patients were heavily treated with chemoimmunotherapy. Patients had received a median of 4 prior regimens and some had received as many as 14 prior regimens. Most patients had received several types of chemoimmunotherapy for NHL. Disease was commonly refractory to available therapies.
# (§3) Patients were treated over a broad range of doses of Compound A using once-per-day (QD) and twice-per-day (BID) continuous and intermittent schedules. Patients remained on therapy for protracted periods; many patients with iNHL continued on treatment beyond 12 cycles (48 weeks).
# (§4) Prior to treatment, the concentration of CCL17, CCL22, CXCL13, and TNF-alpha was evaluated. On the last day of the cycle, the plasma concentration of the chemokines and TNF-alpha was re-assessed. Table 3 (for MCL) and Table 4 (for iNHL) below summarize the chemokine and TNF-alpha concentration at the baseline and at Day 28 of the cycle.
# [4] = system: CCL17, CCL22, CXCL13 and TNF-alpha levels in iNHL patients; experiment: Plasma chemokine and TNF-alpha levels and tumor size in iNHL patients, pre-treatment vs Day 28; assay type: in vivo, human
# Experimental: as §2, §3, §4
# [5] = system: CCL3, CCL17 and TNF-alpha in CLL patients; experiment: Clinical evaluation in CLL patients: change in plasma CCL3, CCL17 and TNF-alpha compared to decrease in lymph node size; assay type: in vivo, human; conditions: responders = lymph node decreases of 50% or greater, FIG. 10
# Experimental: The concentration of CCL3, CCL17 and TNF-alpha were determined in the plasma samples by a bead-based ELISA technology. The resulting plasma concentrations of these factors were compared to decrease in lymph node size. Patients that had lymph node decreases of 50% or greater were designated as “responders” to the drug.
smiles,measurement,setting,value
"CC[C@H](Nc1ncnc2[nH]cnc12)c1nc2cccc(F)c2c(=O)n1-c1ccccc1 [Compound A, (S)-2-(1-(9H-purin-6-ylamino)propyl)-5-fluoro-3-phenylquinazolin-4(3H)-one]",clinical activity (lymphadenopathy),"[1]; 50 to 350 mg BID, 28-day dosing period",decrease in lymphadenopathy
same,CCL3 plasma concentration,"[1]; Day 28 of cycle 1, 50 to 350 mg BID, average (baseline 186)",29 pg/mL
same,CCL4 plasma concentration,"[1]; Day 28 of cycle 1, 50 to 350 mg BID, average (baseline 303)",70 pg/mL
same,CXCL13 plasma concentration,"[1]; Day 28 of cycle 1, 50 to 350 mg BID, average (baseline 316)",40 pg/mL
same,% reduction of CCL3,[1]; Day 28 vs baseline,84%
same,% reduction of CCL4,[1]; Day 28 vs baseline,77%
same,% reduction of CXCL13,[1]; Day 28 vs baseline,87%
same,"decrease of the concentration of CCL3, CCL4 and CXCL13","[1]; first week of dosing, across all dose levels evaluated (50 to 350 mg BID)",2 to 5 fold
same,CCL3 and CCL4 secretion by anti-IgM stimulated CLL cells,[2],effective suppression of chemokine secretion to levels nearing the control values
same,EC50,PI3Kalpha,> 20 µM
same,EC50,PI3Kγ,3.89 µM
same,TNF-alpha plasma concentration,[3]; Day 28 (pre-treatment 65),37 pg/mL
same,CCL17 plasma concentration,[3]; Day 28 (pre-treatment 194),60 pg/mL
same,CXCL13 plasma concentration,[3]; Day 28 (pre-treatment 437),227 pg/mL
same,CCL22 plasma concentration,[3]; Day 28 (pre-treatment 2593),1286 pg/mL
same,% reduction of CCL17,[3]; Day 28 vs pre-treatment,69%
same,% reduction of CCL22,[3]; Day 28 vs pre-treatment,50%
same,% reduction of CXCL13,[3]; Day 28 vs pre-treatment,48%
same,% reduction of TNF-alpha,[3]; Day 28 vs pre-treatment,43%
same,clinical activity (tumor size),[3]; FIG. 4a,reduction in tumor size
same,TNF-alpha plasma concentration,[4]; Day 28 (pre-treatment 41),19 pg/mL
same,CCL17 plasma concentration,[4]; Day 28 (pre-treatment 234),88 pg/mL
same,CXCL13 plasma concentration,[4]; Day 28 (pre-treatment 470),161 pg/mL
same,CCL22 plasma concentration,[4]; Day 28 (pre-treatment 2602),1166 pg/mL
same,% reduction of CCL17,[4]; Day 28 vs pre-treatment,62%
same,% reduction of CCL22,[4]; Day 28 vs pre-treatment,55%
same,% reduction of CXCL13,[4]; Day 28 vs pre-treatment,66%
same,% reduction of TNF-alpha,[4]; Day 28 vs pre-treatment,54%
same,clinical activity (tumor size),[4]; FIG. 4b,reduction in tumor size
same,"change from predose to Day 28 of CCL3, CCL17 and TNF-alpha, responders vs non-responders",[5],significantly greater for individuals that responded to the drug than those that did not
